# In patent publication US9078864B2, “Agonists for antimicrobial peptide systems” (priority 2008, dated 2015):
# Entries after “also recorded” stand apart in the source; their conditions may differ.
# What was measured:
# LL-37 mRNA = settings: colonocytes in vitro; cited from earlier work
# [1] = system: shigellosis; CAP-18 (the rabbit homologue of LL-37); settings: rabbits; cited from earlier work
# defensin = settings: similar concentrations, FIG. 7 of US2002-0076393; cited from earlier work
# [2] = cited from earlier work; for safety of topical (enema) dosing: 528 mg/day to 1.12 g/day, 2-6 weeks, adult IBD patients
# [3] = system: CAMP gene, encoding LL-37; test: CAMP (LL-37) mRNA expression in VA10 lung epithelial cells, real time RT-PCR; type: cell-based, human; settings: for CAMP mRNA expression: 4 mM
# Method: LL-37 expression in lung epithelial cells treated with different agents Lung epithelial cells (VA 10) were grown to confluency under standard conditions and the agents to be tested added at the indicated concentrations (see below). mRNA was isolated 24 hours after treatment and measured by real time reverse transcription PCR.
# Six-well plates were seeded with 1.0×10^6 cells per well and grown for two days. Medium was then exchanged and different wells were left untreated, supplemented with 2 mM sodium butyrate or 2 mM sodium 4-phenylbutyrate. The cells were incubated for 48 h and total RNA was prepared using the RNEasy kit (Qiagen). Total RNA concentrations were measured using the Quant-iT RiboGreen RNA assay kit (Invitrogen). Superscript III first-strand synthesis system (Invitrogen) was used to synthesize cDNA using random primers according to the protocol of the manufacturer. […] Results were normalized to total RNA quantity, presented as relative fold induction of untreated control cells.
# Total RNA was isolated from the cells and CAMP mRNA expression levels analyzed by real time RT-PCR.
# [4] = system: CAMP mRNA in HT-29 (Human colonic adenocarcinoma cell line); test: CAMP gene expression by PBA in HT-29 cells; type: cell-based; settings: 4 mM, 8, 24 and 48 hours
# Method: (§1) FIG. 3: Induction of CAMP gene mRNA expression by PBA. A) VA10 cells were stimulated with the indicated concentrations of PBA or solvent (Control) for 24 hours. B) VA10 cells were stimulated with 4 mM PBA or treated with solvent alone and harvested after the indicated period of time. C) A498, HT-29 and U937 cells were stimulated with 4 mM PBA or solvent only and harvested after the indicated period of time. CAMP mRNA levels were determined by real time RT-PCR. Individual samples were normalized to total RNA input. Results were normalized to expression in control samples where controls were given the arbitrary value of one. The normalized data is plotted as mean+SE from at least three independent experiments.
# (§2) In order to investigate the effect of PBA on other cell lines, HT-29 (Human colonic adenocarcinoma cell line), […] (Human renal carcinoma cell line) and U937 (Human leukemic monocyte lymphoma cell line) were stimulated with 4 mM PBA for 8, 24 and 48 hours. Total RNA was isolated from the cells and CAMP mRNA expression levels analyzed by real time RT-PCR.
# [5] = system: CAMP mRNA in A497 (Human renal carcinoma cell line); test: CAMP gene expression by PBA in A497 cells; type: cell-based; settings: 4 mM, 8, 24 and 48 hours
# Method: as §1, §2
# [6] = system: CAMP mRNA in U937 (Human leukemic monocyte lymphoma cell line); test: CAMP gene expression by PBA in U937 cells; type: cell-based; settings: 4 mM, 8, 24 and 48 hours
# Method: as §1, §2
# [7] = system: acetylation of histone H3 and H4 at the CAMP gene proximal promoter; test: Histone H3 and H4 acetylation at the CAMP gene promoter, quantitative ChIP in VA10 cells; type: cell-based, human; settings: 4 mM, 24 hours, listed as PBA
# Method: FIG. 9: VA10 cells were stimulated with 4 mM of PBA or solvent alone (Control) for 24 hours. Acetylation of histone H3 and H4 was analyzed by quantitative ChIP using antibodies against the respective acetylated histones. Results were normalized to normal rabbit IgG and total input and plotted as fold precipitation over IgG. Normalized data is plotted as mean+SE from independent experiments (n=3).
# The effect of PBA on acetylation of histone H3 and H4 by quantitative chromatin immunoprecipitation was assessed.
# VDR co-activator genes = test: VDR co-activator mRNA levels in VA10 cells, real time RT-PCR; type: cell-based, human; settings: 4 mM, 24 hours
# Method: (§3) VA10 cells were stimulated with 4 mM of PBA or solvent alone (Control) for 24 hours. mRNA levels of the respective VDR co-activators were determined by real time RT-PCR. Individual samples were normalized to total RNA input. Results were normalized to expression in control samples where controls were given the arbitrary value of one. Data is normalized to control and plotted as mean+SE from three independent experiments.
# Hypothesizing that the synergistic effect between PBA and 1,25(OH)2D3 was due to an induction of VDR co-activator genes by PBA, we analyzed the effect of PBA on mRNA levels of several known VDR co-activator genes in VA10. […] These co-activators are therefore not involved in the PBA-induced effects on gene expression.
# hBD-1 mRNA = hBD-1 mRNA expression in VA10 cells, real time RT-PCR; type: cell-based, human; settings: 4 mM, 24 hours, compared with CAMP induction
# Method: as §3, with “FIG. 11: Induction of hBD-1 mRNA expression by PBA. VA10” for “VA10”, “hours. hBD-1” for “hours.”, “levels” for “levels of the respective VDR co-activators”, “RT-PCR, CAMP induction shown for comparison.” for “RT-PCR.”, “from at least” for “from”
# CAMP is not the only antimicrobial defense gene that is induced by PBA.
# [8] = system: PBA and butyrate induced CAMP gene expression; test: Inhibition of PBA and butyrate induced CAMP gene expression by cycloheximide in VA10 cells; type: cell-based, human; settings: 20 μg/ml one hour prior to stimulation, 24 hours
# Method: VA10 cells were treated with 4 mM PBA or butyrate (BA) in the presence or absence of 20 μg/ml cycloheximide. CAMP mRNA levels were determined by real time RT-PCR. Individual samples were normalized to total RNA input. Results were normalized to expression in control samples (solvent) where controls were given the arbitrary value of one. Normalized data is plotted as mean plus standard error of the mean from at least three independent experiments. *: p<0.05; **: p<0.01; ***: p<0.001.
# In order to assess whether the PBA and butyrate induction pathways of CAMP gene expression are direct, VA10 cells were treated with PBA or butyrate in the presence and absence of cycloheximide (CHX). After 24 hours of incubation, total RNA was isolated and CAMP mRNA levels measured using real time RT-PCR.
# [9] = system: PBA induced CAMP gene expression; test: Inhibition of PBA induced CAMP gene expression by MAP kinase inhibitors in VA10 cells; type: cell-based, human; settings: 20 μM inhibitor one hour prior to 4 mM PBA, 24 hours
# Method: FIG. 6B. […] CAMP mRNA levels were determined by real time RT-PCR. Individual samples were normalized to total RNA input. Results were normalized to expression in control samples where controls were given the arbitrary value of one. Normalized data is plotted as mean+SE from three independent experiments. *: P<0.05; **: P<0.01; ***: P<0.001
# The effect of inhibitors for c-Jun N-terminal kinase (JNK), p38 kinase and extracellular signal-regulated kinase ½ (ERK½) on PBA induced CAMP gene expression were also investigated as shown in FIG. 6B. One hour prior to stimulation with 4 mM PBA, VA10 cells were pre incubated with 20 μM SP600125, SB203580 or U0126 to inhibit the respective kinases. After 24 hours of incubation, total RNA was isolated and analyzed by real time RT-PCR for CAMP mRNA.
# cathelicidin = settings: 4000 IU/d oral for 21 days, atopic dermatitis subjects; cited from earlier work
# [10] = system: CAP-18 (the rabbit homologue to LL-37); test: Shigella infected rabbits treated with glyceryl tributyrate, CAP-18 immunohistochemistry; type: in vivo; settings: oral, 47 μmol/kg twice daily for 3 days, Shigella flexneri 2a
# Method: Animal model: Inbred New Zealand White rabbits of either gender weighing 1.8 to 2 kg were used for the study. The animals were individually caged in a room maintained at 22-25° C. Before inclusion in the study, health status of the rabbits was determined by physical examination, culture of stool and rectal swab specimens and fecal parasitic examination. Healthy coccidia-free rabbits that were also free of enteric pathogens (e.g. Salmonella, Shigella, Vibrio cholera) were studied. Rabbits were infected with Shigella and divided into two groups, one group was treated orally with glyceryl tributyrate and the other with saline. Expression of the CAP-18 peptide and its proform in colonic and rectal tissue specimens were analyzed in healthy rabbits, in untreated infected rabbits, in infected and healthy rabbits treated with glycerol tributyrate. For analyses of toxicity effects of glycerol tributyrate healthy rabbits were also treated with this compound.
# Bacterial strain and inoculum preparation: The Shigella flexneri 2a strain was isolated from stool of a patient. The strain was positive for the Serény test and Congo red binding, reflecting invasive properties (Berkhoff, H. A. and Vinal, A. C., 1986, Avian Dis. 30, 117-121)) From this stock, bacteria were subcultured on trypticase soya agar (TSA; Becton Dickinson, Sparks, Md.) plates and cultured overnight at 37° C. […]
structure (smiles),measurement,setting,value
"CCCC(=O)[O-].[Na+] [butyrate, sodium butyrate]",LL-37 mRNA expression,LL-37 mRNA,increases
same,CAP-18 in the surface epithelium,[1],significant upregulation
same,clinical illness and bacterial load in the stool,[1],reduced clinical illness and bacterial load in the stool
same,activity in stimulating production of defensin relative to isoleucine,defensin,less active than isoleucine at similar concentrations
same,safety of topical (enema) dosing,[2],safe with no obvious side effects
same,safety of oral dosing,"[2]; daily oral dose of 4 g, colonic-targeted tablets, 6 weeks, IBD patients",safe and well tolerated without any adverse effects
O=C([O-])CCCc1ccccc1.[Na+] [sodium 4-phenylbutyrate],dose dependence of response at higher concentrations,"[3]; 8 mM, earlier experiments, results not shown",ceased to be dose-dependent
same,LL-37 mRNA expression (fold-induction of CAMP mRNA),"[3]; VA10 cells, 2 mM, 24 hours, compared with sodium butyrate 2 mM and vitamin D3 100 nM",more effective inducer of LL-37 mRNA expression than butyrate or vitamin D
same,time and dose dependence of CAMP mRNA expression,"[3]; VA10 cells, 4 mM over different time points, different concentrations for 24 hours",dependent on PBA dose and increased over time
same,CAMP mRNA expression,[4],significantly increased
same,CAMP mRNA expression,[5],significantly increased
same,CAMP mRNA expression,[6],significantly increased
same,histone H3 and H4 acetylation at the CAMP gene proximal promoter,[7],No significant differences; also recorded: No significant change
same,mRNA levels of VDR co-activator genes,VDR co-activator genes,None of the genes were significantly upregulated
same,hBD-1 mRNA expression,hBD-1 mRNA,"induced, although at lower level than CAMP"
same,safety of topical (enema) dosing,[2],None of these studies reported any adverse effect or reactions
CCC(=O)O [propionate],LL-37 mRNA expression,LL-37 mRNA,increases
"C[C@@H]1C[C@@H]([C@H](O)CC2CC(=O)NC(=O)C2)C(=O)[C@@H](C)C1 [CHX, cycloheximide]",PBA induced CAMP gene expression in presence of cycloheximide,[8]; 4 mM PBA,effectively blocked
same,butyrate induced CAMP gene expression in presence of cycloheximide,[8]; 4 mM butyrate,effectively blocked
CC(C)C(=O)O [isobutyrate],LL-37 mRNA expression,LL-37 mRNA,increases
"CC(Cc1ccccc1)C(=O)O (stereo not drawn) [ST7, α-methylhydrocinnamate]",CAMP mRNA expression,"[3]; VA10 cells, 24 hours",significantly increased
N#CC(=C(/N)Sc1ccccc1N)/C(C#N)=C(\N)Sc1ccccc1N [U0126],PBA induced CAMP gene expression in presence of inhibitor,[9],significantly reduced
C=C1CC[C@H](O)C/C1=C/C=C1\CCC[C@]2(C)[C@@H]([C@H](C)CCCC(C)C)CC[C@@H]12 [oral vitamin D],cathelicidin expression in AD lesional skin,cathelicidin,statistically significant increase
"CCC(C)(C)C(=O)O [ST20, 2,2-dimethylbutyrate]",CAMP mRNA expression,"[3]; VA10 cells, 24 hours",no apparent effect
"CCCC(=O)OCC(COC(=O)CCC)OC(=O)CCC [tributyrylglycerol, glyceryl tributyrate]",CAP-18 expression in surface epithelial cells of Shigella infected rabbits,[10],counteracted; also recorded: reverted and/or prevented
